For one experiment, the target named is T1, Aurora B (Homo sapiens, UniProt Q96GD4).
T1 construct: HT-29 cells grown in complete growth media
The experiment can be described thus: Aurora B cell mechanistic assay (HT-29), phospho-Histone H3 (Ser10) ELISA. The format is cell-based. To be noted: HT-29 cell line; inhibition of phospho-Histone H3 (Ser10); at least duplicate experiments (italicized if single experiment); read-out: Aurora B mech IC50. As for the experimental part: The cellular activity of the compounds of the present invention against Aurora B may be determined by the following procedure. HT-29 cells grown in complete growth media (McCoy's 5A, 10% FCS, 1% L-glutamine) were plated into wells of a 96 well tissue culture plate (Falcon 3072) at a cell density of 4×10^4 cells/0.09 ml media/well. Cells were subsequently incubated overnight in a 5% CO2 humidified 37° C. incubator. The following day 10 μl of a 10× stock of test compound serially diluted in media was added to the cells and incubated for 1 h at 37° C. at which time Calyculin A (Cell Signaling #9902) was added at a concentration of 100 nM and cells incubated for an additional 30 minutes in a 5% CO2 humidified 37° C. incubator. Media was then aspirated and cells lysed using a Triton based lysis buffer. Lysates were transferred to a pre-coated anti-Histone H3 antibody coated plate supplied by Cell Signaling in their PathScan phospho-Histone H3 (Ser10) ELISA kit (#7155). After an overnight incubation with lysate the ELISA was continued following the manufacturer's instructions. Signal was measured on a Wallac Victor plate reader at 450 nm. DMSO control treated cells served as 100% signal and an Aurora B kinase inhibitor served as 100% inhibition. The percent inhibition of phospho-Histone H3 (Ser10) was expressed as % control. IC50 values were calculated from the percent control data using a standard four-parameter model.
The IC50 values of exemplary compounds of the present invention determined in a Aurora B cell mechanistic assay using the HT-29 cell line according to the procedures described herein in at least duplicate experiments are abbreviated as follows and are shown in Table 4: A, IC50≦0.05 μM; B, 0.05 μM<IC50≦0.2 μM; C, 0.2 μM<IC50≦1 μM; D, IC50>1 μM; ND, not determined. If only data from single experiments are available, the abbreviations are italicized. The Example # of Table 4 corresponds to the compound example number as illustrated in the Examples section.

The subject of the next experiment is Karpas-299 cells. Briefly: Karpas-299 cell proliferation assay (CellTiter-Glo). The format is cell-based. The note with it: Homo sapiens, 72 h; Karpas-299 cell line (NPM-ALK); 3 days incubation; at least duplicate experiments; read-out: Prolif. IC50.

SMILES strings stand for the structures.

T1 sequence (Q96GD4 whole entry): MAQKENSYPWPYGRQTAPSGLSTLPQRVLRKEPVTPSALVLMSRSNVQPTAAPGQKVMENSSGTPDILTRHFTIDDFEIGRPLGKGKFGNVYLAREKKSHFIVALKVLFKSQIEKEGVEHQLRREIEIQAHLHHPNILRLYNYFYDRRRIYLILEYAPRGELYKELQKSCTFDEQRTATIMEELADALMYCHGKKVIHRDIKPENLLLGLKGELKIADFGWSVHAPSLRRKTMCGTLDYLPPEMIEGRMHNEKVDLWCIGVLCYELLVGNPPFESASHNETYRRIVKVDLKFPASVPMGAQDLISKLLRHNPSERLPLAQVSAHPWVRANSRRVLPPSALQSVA

Regarding `COc1ccc(F)c(Cl)c1[C@@H](C)c1c[nH]c2ncc(-c3c[nH]nc3C)cc12` [Example 1, 3-[(1S)-1-(2-Chloro-3-fluoro-6-methoxyphenyl)ethyl]-5-(3-methyl-1H-pyrazol-4-yl)-1H-pyrrolo[2,3-b]pyridine], the results for the half-maximal inhibitory concentration (IC50) on Aurora B and in the experiment on Karpas-299 cells were 0.2 to 1 µM and 0.05 to 0.2 µM, respectively.

Regarding `COc1ccc(F)c(Cl)c1[C@@H](C)c1c[nH]c2ncc(-c3cn(C)nc3C)cc12` [Example 2, 3-[(1S)-1-(2-Chloro-3-fluoro-6-methoxyphenyl)ethyl]-5-(1,3-dimethyl-1H-pyrazol-4-yl)-1H-pyrrolo[2,3-b]pyridine], the concentration for half-maximal inhibition (IC50) on Aurora B and in the experiment with Karpas-299 cells was 0.05 to 0.2 µM in each case. With `COc1ccc(F)c(Cl)c1[C@@H](C)c1c[nH]c2ncc(-c3cnn(C)c3C)cc12` [Example 3, 3-[(1S)-1-(2-Chloro-3-fluoro-6-methoxyphenyl)ethyl]-5-(1,5-dimethyl-1H-pyrazol-4-yl)-1H-pyrrolo[2,3-b]pyridine], the values for the IC50 on Aurora B and in the experiment on Karpas-299 cells were above 1 µM and 0.05 to 0.2 µM, respectively. For `COc1ccc(F)c(Cl)c1[C@@H](C)c1c[nH]c2ncc(-c3c(C)nn(C)c3C)cc12` [Example 4, 3-[(1S)-1-(2-Chloro-3-fluoro-6-methoxyphenyl)ethyl]-5-(1,3,5-trimethyl-1H-pyrazol-4-yl)-1H-pyrrolo[2,3-b]pyridine], in that order: above 1 µM and 0.05 to 0.2 µM.

Turning to `COc1ccc(F)c(Cl)c1[C@@H](C)c1c[nH]c2ncc(-c3c(C)nn(CC(C)(C)O)c3C)cc12` [Example 5, 1-(4-{3-[(1S)-1-(2-Chloro-3-fluoro-6-methoxyphenyl)ethyl]-1H-pyrrolo[2,3-b]pyridin-5-yl}-3,5-dimethyl-1H-pyrazol-1-yl)-2-methylpropan-2-ol], the IC50 is above 1 µM at Aurora B and at most 0.05 µM in the experiment with Karpas-299 cells.

For `COc1ccc(F)c(Cl)c1[C@@H](C)c1c[nH]c2ncc(-c3c(C)nn([C@H]4CC[C@H](O)CC4)c3C)cc12` [Example 6, trans-4-(4-{3-[(1S)-1-(2-Chloro-3-fluoro-6-methoxyphenyl)ethyl]-1H-pyrrolo[2,3-b]pyridin-5-yl}-3,5-dimethyl-1H-pyrazol-1-yl)cyclohexanol], the IC50 was above 1 µM at Aurora B and at most 0.05 µM in the experiment with Karpas-299 cells. In the case of `COc1ccc(F)c(Cl)c1[C@@H](C)c1c[nH]c2ncc(-c3cn(CC(C)(C)O)nc3C)cc12` [Example 7, 1-(4-{3-[(1S)-1-(2-Chloro-3-fluoro-6-methoxyphenyl)ethyl]-1H-pyrrolo[2,3-b]pyridin-5-yl}-3-methyl-1H-pyrazol-1-yl)-2-methylpropan-2-ol], the IC50 is 0.2 to 1 µM on Aurora B and 0.05 to 0.2 µM in the experiment with Karpas-299 cells.

Consider `COc1ccc(F)c(Cl)c1[C@@H](C)c1c[nH]c2ncc(-c3cnn(CC(C)(C)O)c3C)cc12` [Example 8, 1-(4-{3-[(1S)-1-(2-Chloro-3-fluoro-6-methoxyphenyl)ethyl]-1H-pyrrolo[2,3-b]pyridin-5-yl}-5-methyl-1H-pyrazol-1-yl)-2-methylpropan-2-ol], for which the IC50 on Aurora B fell in the range of 0.2 to 1 µM; with Karpas-299 cells, 0.05 to 0.2 µM.

As to `COc1ccc(F)c(Cl)c1[C@@H](C)c1c[nH]c2ncc(-c3cnn(C[C@H](O)CO)c3C)cc12` [Example 10, (2S)-3-(4-{3-[(1S)-1-(2-Chloro-3-fluoro-6-methoxyphenyl)ethyl]-1H-pyrrolo[2,3-b]pyridin-5-yl}-5-methyl-1H-pyrazol-1-yl)propane-1,2-diol], the half-maximal inhibitory concentration (IC50) is 0.2 to 1 µM on Aurora B and at most 0.05 µM in the experiment with Karpas-299 cells. In the same order, the values of `CCc1c(-c2cnc3[nH]cc([C@H](C)c4c(OC)ccc(F)c4Cl)c3c2)cnn1CC(C)(C)O` [Example 11, 1-(4-{3-[(1S)-1-(2-Chloro-3-fluoro-6-methoxyphenyl)ethyl]-1H-pyrrolo[2,3-b]pyridin-5-yl}-5-ethyl-1H-pyrazol-1-yl)-2-methylpropan-2-ol] are above 1 µM and 0.2 to 1 µM.

`CCc1nn(CC(C)(C)O)cc1-c1cnc2[nH]cc([C@H](C)c3c(OC)ccc(F)c3Cl)c2c1` [Example 12, 1-(4-{3-[(1S)-1-(2-Chloro-3-fluoro-6-methoxyphenyl)ethyl]-1H-pyrrolo[2,3-b]pyridin-5-yl}-3-ethyl-1H-pyrazol-1-yl)-2-methylpropan-2-ol]: the IC50 is above 1 µM on Aurora B and 0.05 to 0.2 µM in the experiment on Karpas-299 cells. In the same order, the values of `COc1ccc(F)c(Cl)c1[C@@H](C)c1c[nH]c2ncc(-c3cnn([C@H]4CC[C@H](C(=O)N(C)C)CC4)c3C)cc12` [Example 14, Trans-4-(4-{3-[(1S)-1-(2-chloro-3-fluoro-6-methoxyphenyl)ethyl]-1H-pyrrolo[2,3-b]pyridin-5-yl}-5-methyl-1H-pyrazol-1-yl)-N,N-dimethylcyclohexanecarboxamide] are above 1 µM and at most 0.05 µM.

Regarding `CNC(=O)[C@H]1CC[C@H](n2ncc(-c3cnc4[nH]cc([C@H](C)c5c(OC)ccc(F)c5Cl)c4c3)c2C)CC1` [Example 17, trans-4-(4-{3-[(1S)-1-(2-Chloro-3-fluoro-6-methoxyphenyl)ethyl]-1H-pyrrolo[2,3-b]pyridin-5-yl}-5-methyl-1H-pyrazol-1-yl)-N-methyl cyclohexanecarboxamide], the concentration for half-maximal inhibition (IC50) is 0.2 to 1 µM on Aurora B and at most 0.05 µM with Karpas-299 cells. In the case of `Cc1c(-c2cnc3[nH]cc([C@H](C)c4c(OC(F)F)ccc(F)c4Cl)c3c2)cnn1C1CCNCC1` [Example 96, 3-{(1S)-1-[2-Chloro-6-(difluoromethoxy)-3-fluorophenyl]ethyl}-5-[5-methyl-1-(piperidin-4-yl)-1H-pyrazol-4-yl]-1H-pyrrolo[2,3-b]pyridine], the concentration for half-maximal inhibition (IC50) in the experiment on Karpas-299 cells was at most 0.05 µM.

Consider `CC(=O)N1CCC(n2ncc(-c3cnc4[nH]cc([C@H](C)c5c(OC(F)F)ccc(F)c5Cl)c4c3)c2C)CC1` [Example 97, 1-{4-[4-(3-{(1S)-1-[2-Chloro-6-(difluoromethoxy)-3-fluorophenyl]ethyl}-1H-pyrrolo[2,3-b]pyridin-5-yl)-5-methyl-1H-pyrazol-1-yl]piperidin-1-yl}ethanone], for which the 50% inhibitory concentration (IC50) with Karpas-299 cells is at most 0.05 µM. On the same count and under the same terms, the value for `COc1ccc(F)c(Cl)c1[C@@H](C)c1c[nH]c2ncc(-c3cn([C@H]4CC[C@H](O)CC4)nc3OC)cc12` [Example 99, trans-4-(4-{3-[(1S)-1-(2-chloro-3-fluoro-6-methoxyphenyl)ethyl]-1H-pyrrolo[2,3-b]pyridin-5-yl}-3-methoxy-1H-pyrazol-1-yl)cyclohexanol] was 0.05 to 0.2 µM.

As to `COc1nn([C@H]2CC[C@H](O)CC2)cc1-c1cnc2[nH]cc([C@H](C)c3c(OC(F)F)ccc(F)c3Cl)c2c1` [Example 100, trans-4-[4-(3-{(1S)-1-[2-chloro-6-(difluoromethoxy)-3-fluorophenyl]ethyl}-1H-pyrrolo[2,3-b]pyridin-5-yl)-3-methoxy-1H-pyrazol-1-yl]cyclohexanol], in the experiment with Karpas-299 cells, the half-maximal inhibitory concentration (IC50) lay within 0.05 to 0.2 µM.

Regarding `COc1ccc(F)c(Cl)c1[C@@H](CF)c1c[nH]c2ncc(-c3cnn([C@H]4CC[C@H](O)CC4)c3C)cc12` [Example 121, trans-4-(4-{3-[(1S)-1-(2-Chloro-3-fluoro-6-methoxyphenyl)-2-fluoroethyl]-1H-pyrrolo[2,3-b]pyridin-5-yl}-5-methyl-1H-pyrazol-1-yl)cyclohexanol], in the experiment with Karpas-299 cells, the IC50 is at most 0.05 µM. The same measure, in the same setting: in the case of `Cc1c(-c2cnc3[nH]cc([C@@H](CF)c4c(OC(F)F)ccc(F)c4Cl)c3c2)cnn1[C@H]1CC[C@H](O)CC1` [Example 123, trans-4-[4-(3-{(1R)-1-[2-chloro-6-(difluoromethoxy)-3-fluorophenyl]-2-fluoroethyl}-1H-pyrrolo[2,3-b]pyridin-5-yl)-5-methyl-1H-pyrazol-1-yl]cyclohexanol] it was 0.05 to 0.2 µM. With `Cc1c(-c2cnc3[nH]cc([C@H](CF)c4c(OC(F)F)ccc(F)c4Cl)c3c2)cnn1[C@H]1CC[C@H](O)CC1` [Example 124, trans-4-[4-(3-{(1S)-1-[2-chloro-6-(difluoromethoxy)-3-fluorophenyl]-2-fluoroethyl}-1H-pyrrolo[2,3-b]pyridin-5-yl)-5-methyl-1H-pyrazol-1-yl]cyclohexanol], in the experiment on Karpas-299 cells, the IC50 was at most 0.05 µM. The same measure, in the same setting: in the case of `C[C@H](c1c(OC(F)F)ccc(F)c1Cl)c1c[nH]c2ncc(-c3cnc(N4CCC(O)CC4)n3C)cc12` [Example 125, 1-[5-(3-{(1S)-1-[2-Chloro-6-(difluoromethoxy)-3-fluorophenyl]ethyl}-1H-pyrrolo[2,3-b]pyridin-5-yl)-1-methyl-1H-imidazol-2-yl]piperidin-4-ol] it was at most 0.05 µM; in that of `C[C@H](c1c(OC(F)F)ccc(F)c1Cl)c1c[nH]c2ncc(-c3cnc([C@H]4CC[C@H](O)CC4)n3C)cc12` [Example 126, trans-4-[5-(3-{(1S)-1-[2-Chloro-6-(difluoromethoxy)-3-fluorophenyl]ethyl}-1H-pyrrolo[2,3-b]pyridin-5-yl)-1-methyl-1H-imidazol-2-yl]cyclohexanol], at most 0.05 µM.

The values are drawn from patent US8445510B2, “Fused bicyclic kinase inhibitors” (OSI Pharmaceuticals, LLC, priority 2011, dated 2013).
